{
  "source": "patent US10106777B2",
  "about": "“Directed differentiation and maturation of pluripotent cells into hepatocyte like cells by modulation of Wnt-signalling pathway” (Takara Bio Europe AB, priority 2010, dated 2018)",
  "key": {"MEF cultured hESC": {"tested_on": "MEF cultured hESC", "test": "Cell death on addition of BIO at day 3 of differentiation", "format": "cell-based, human", "experimental": "(§1) Thus it appears advantageous to add GSK-3 inhibitors at a later stage of differentiation to avoid massive cell death seen when it is added at day 3. […] In addition, GSK3 inhibitors at this stage may contribute/stimulate to hepatic induction of the competent endoderm."}, "[1]": {"tested_on": "feeder free cultured hPS cells", "test": "Hepatic gene marker expression in hepatocyte-like cells from feeder free hESC", "format": "cell-based, human", "settings": "with vs without GSK3 inhibitor", "experimental": "The split media (SM) gave the same levels as without split media. Two controls were used undifferentiated cells cultured feeder free (UD feeder free) and a perpetual cell line from a hepatocellular carcinoma (HepG2). The levels of AFP, KRT18 (Keratin 18) and KRT19 (Keratin 19) indicate that the cells are maintained in a stage where they still have the ability to proliferate. The cells were 23 days when they were analyzed, n=3."}, "hES cells [2]": {"tested_on": "hES cells", "protocol": "FIGS. 6A and B. hES cells cultured with and without the GSK3 inhibitor were compared for their hepatic profile and homogeneity, as described in examples 12 and 13. Where a GSK3 inhibitor was added it was added at a later stage of the differentiation, according to FIG. 3B.\nA) Results from Activity Assay of CYP1A, 3A and 2C. […] The cells were 30 days, n=8. hPS vs hPS+BIO.B)"}, "hiPS cells [3]": {"tested_on": "hiPS cells"}, "[4]": {"tested_on": "hESC derived hepatocytes (hESC-HEP)", "protocol": "Analysis are performed at day 16-18 (n=7-8), 20-21 (n=5) and 25 (n=2) respectively, mean±SD.\nMEF-cultured hESCs (hES cells cultured on feeder cells) were differentiated into hepatocyte-like cells according to examples 4, 8 and 9, thus comparing the absence of BIO, a GSK3-inhibitor (Example 4), to the influence of BIO during the maturation step (day 10-26) in maturation medium I and II (MM I and MM II)(Example 8 and 9 respectively). Before adding the first medium, ID day 0-2, the cultures were washed thoroughly with PBS, twice. The different mediums were prepared freshly and added day 0 (DE day 0-1), 2 (DE day 2-4), 4 and 7-10 every other to third day (VH1), 10-26 every second or third day (MMI or MM II). […] Cells were counted in a Bürker chamber and seeded out in 0.1% gelatine coated culture units (e.g. in 24-well plates) at a cell density of 150 to 250K cells per cm^2.\nAt day 16, 18, 20, 21 and 25 hESC-HEP cultures were analyzed for cytochrome P450 1A activity by incubating the substrate Phenacetine to a final concentration of 26 μM in Phenol Red-free Williams Medium E, supplemented with 0.1% Penicilline-Streptomycin 2 mM L-Glutamine and 25 mM Hepes. […] Samples were analysed by Liquid chromatography-mass spectrometry (LC-MS) LCMS for presence of the metabolite Paracetamol, biotransformed by the cytochrome p450 enzymes Cyp1A2, 1A1."}, "hiPS cells [5]": {"tested_on": "hiPS cells", "remark": "listed apart in the source", "protocol": "FIGS. 5A and B. hiPS cells cultured with and without the GSK3 inhibitor were compared for their hepatic profile and homogeneity. Where a GSK3 inhibitor was added it was added at a later stage of the differentiation, according to FIG. 3. Derivation of hepatocytes from human induced pluripotent stem cells (hiPS).\nThe cells were 30 days, n=8. hiPS vs hiPS+BIO.\nThe undifferentiated hiPS cells were cultured in Activin A supplemented media to stimulate initial differentiation into partly differentiated cells. The hiPS derived partly differentiated cells were then passaged (to plates coated with 0.1% Gelatin or Matrigel 0.016 mM) and induced to hepatic progenitor cells and then to hepatocyte like cells in media with and without BIO supplementation, see FIG. 3 A)-B).\nThe hiPS cells were cultured on mEFs until they were confluent. The cells were washed twice in PBS+/+ and treated with Activin A containing medium (See FIG. 3 a-b). The cells adapted an endoderm like morphology around day 3. When the majority of the cells were partly differentiated, the cells were exposed to media supplemented with factors inducing the cells into hepatocyte-like cells (See FIG. 3A)-B)) plus or minus BIO."}, "[6]": {"tested_on": "hESC-HEP (cell-line SA002)", "protocol": "Qrt-PCR data is presented as fold change gene expression levels of HepG2 except for BSEP, which graph show fold change of calibrator. N=2-3, mean±SEM.\nhESC-HEP were derived from cell-line SA002 cultures on mEF-layer according to Example 9, FIG. 2, protocol iii (absence of BIO between day 3-10) or Example 11, FIG. 2, protocol iv (presence of 3.5 μM BIO between day 3-10). Total RNA was collected and isolated from the two hES-HEP cultures at day 21, 24, 26 and 28 by using RNA isolation kit from Qiagene. Quantitative reverse transcriptase PCR, QrtPCR, by using Taqman probes, was performed for the following hepatic marker genes: phase I drug metabolizing enzymes; CYP (cytochrome P450) 3A4, 3A5, 3A7, 2C9, phase II drug metabolizing enzymes GSTA1 (glutation-S-transferas A1), UGT2B7 (UDP glucuronosyltransferase 2B7), phase III, transporters; MRP2 (multi-drug residence protein 2), BSEP (bile salt export pump), and general hepatic markers; A1AT (alpha-1 antitrypsin), ALB (albumin) and TAT (tyrosine-amino transferas). All data was normalised to the house-keeping gene CREB. RNA from HepG2 cultures was included and data is presented as fold change of HepG2. […] Thus, BSEP expression is instead presented as fold change of a so called calibrator which contains RNA from different sources."}, "[7]": {"tested_on": "UDP-glucuronyltransferases (UGTs)", "test": "UGT metabolic activity in hESC-HEP from feeder-free hESC", "format": "cell-based, human", "description": "FIG. 11. Relative expression levels of UGT hepatic metabolic markers in hESC-HEP generated with or without Wnt-signalling modulation by GSK-3 inhibitor BIO during endoderm to hepatocyte-like cell phase. FC=fold change relative expression, control set […] to 1 for each example. Graphs show expression levels in cells treated with one of three differentiation/maturation protocols (see example 21) and +/−GSK-3 inhibitor treatment for activity of UGTs on specific UGT substrates: (UGT1A1,[8-estradiol]); (UGT2B, [8-estradiol]; (UGT1A6, [1-Napthol]), (UGT1A9, [Propofol]), (UGT2B7, [Naloxone]). A non-specific control (Methylumbelliferone) was also included. n=number of experiments averaged to obtain results.\nMetabolic activity of hESC-HEP derived from hESCs cultured in feeder-free conditions (see Examples 12-14) was measured to determine the effect of GSK-3 inhibition during development and maturation by examining the activity of several UDP-glucuronyltransferases (UGTs) (enzymes that participate in the metabolism of many drugs). Activity of these UGTs was tested via several substrates, namely: β-estradiol (UGT1A1, 3-glucuronide), 1-naphthol (UGT1A6), propofol (UGT1A9), and naloxone (UGT2B7). A non-specific control (Methylumbelliferone) was also included (see FIGS. 12A-B). hESC-HEPs were differentiated essentially according to Example 12, up to day 7. […]"}, "[8]": {"tested_on": "feeder free cultured hPS cells", "protocol": "Feeder free cultured hPS cells with and without the GSK3 inhibitor, as well as an alternative method where a split media as described in FIG. 3C were compared for their hepatic profile and homogeneity.\nA) Results from Activity assay of CYP1A and CYP3A measured by conversion of paracetamol and OH_midazolam respectively.\nhESCs cultured under feeder free conditions were incubated in media supplemented with Activin A. The cells were then induced into hepatocytes by differentiating them to hepatic progenitor cells and then to more mature hepatocyte like cells. Cells cultured with and without the GSK3 inhibitor were compared for their hepatic profile and homogeneity."}, "Beta-catenin": {"tested_on": "Beta-catenin", "test": "Immunolocalisation of Beta-catenin in hES-HEP", "format": "cell-based, human", "description": "C) Immunolocalisation of Beta-catenin and Dapi staining of hES-HEP-BIO (A) and hES-HEP+BIO (B) Beta-catenin is localized at the cell membrane in hES-HEP cultures not treated and treated with BIO. […] Day 21, 20×"}, "[9]": {"tested_on": "hESC derived hepatocytes (hESC-HEP)", "test": "Morphological observation of purity and homogeneity of hESC-HEP cultures", "format": "cell-based, human", "experimental": "FIGS. 8A-E. Differentiation of hESC derived hepatocytes in the presence of GSK3 inhibitor from day 3 purifies hepatocytes from other cell types.\nA-C show hESC-HEP at day 17, differentiated by protocol i or ii according to FIG. 2. D-E show hESC-HEP at day 15, differentiated by protocol iii or vi according to FIG. 2,\nB) 1 μM BIO day 3-9, protocol ii.\nC) 5 μM BIO day 3-9, protocol ii.\nD) 0 μM BIO day 3-9, 1.5 μM BIO day 10-15 protocol iii,\nE) 3.5 μM BIO day 3-9, 1.5 μM BIO day 10-15 protocol vi.\nA and B show hESC-HEP cultures which are over grown by another cell type where as in C the majority of cells in the culture are hepatocyte-like cells. E represent a purer hESC-HEP culture than D. White arrow: hepatocyte-like cells, black arrow: other cell type than hepatocyte-like cells. Scale bar: 100 μm.\nas §1"}, "hES cells [10]": {"tested_on": "hES cells", "remark": "listed apart in the source", "protocol": "Where a GSK3 inhibitor was added it was added at a later stage of the differentiation, according to FIG. 3B.\nB) Results of hepatic markers from Q-PCR of the same cells that were analysed by Activity assay (Q-PCR hPS+/−BIO) n=4."}, "hESC-HEP [11]": {"tested_on": "hESC-HEP", "test": "Hepatic marker expression in hESC-HEP, GSK-3 inhibitors at later stage (from day 10)", "format": "cell-based, human", "settings": "GSK-3 inhibitor from day 10, compared to BIO", "description": "FIGS. 12A and B. Relative expression levels of hepatic markers in hESC-HEP generated with modulation of Wnt-signalling by GSK-3 inhibitors other than BIO during later maturation period (day 10 onwards). Treatments shown include: hESC-HEP (negative control; cells never exposed to GSK-inhibitor during differentiation), BIO, SB216763, Kenpaullone, Indirubin-3-O; also included is a second negative control undifferentiated hESC cells (hESC). […] GSK-3 inhibitors were present only during later differentiation (from day 10 onwards); also included is a further negative control graph showing the expression levels of a housekeeping gene (Creb) across the various samples.\nFurthermore, differentiating cells were exposed to GSK-3 inhibitors only during later (from day 10) stages of differentiation. Three alternative GSK-3 inhibitors were tested alongside BIO to determine effectiveness in inducing hepatic marker expression (SB216763, Kenpaullone and Indirubin-3-O) and results were compiled both for Phase I and Phase II enzymes and hepatic markers, with two negative controls (hESC-HEP not exposed to GSK-3 inhibition during differentiation, and undifferentiated hESC cells). […]"}, "hESC-HEP [12]": {"tested_on": "hESC-HEP", "test": "Hepatic marker expression in hESC-HEP, GSK-3 inhibitors at mid and late stage", "format": "cell-based, human", "settings": "Kenpaullone 0.23 μM days 3-9, 2.5 μM days 10-23, compared to BIO", "description": "FIGS. 13A and B. Relative expression levels of hepatic markers in hESC-HEP generated with modulation of Wnt-signalling by GSK-3 inhibitors other than BIO during both mid (days 3-9) and late stage (days 10-23) differentiation. Treatments shown include: hESC-HEP (negative control; cells never exposed to GSK-inhibitors), BIO, SB216763, Kenpaullone, Indirubin-3-O; also included is a second negative control undifferentiated hESC cells (hESC); also included is a further negative control graph showing the expression levels of a housekeeping gene (Creb) across the various samples.\nDifferentiating cells were exposed to GSK-3 inhibitors during both mid (days 3-9) and late (from day 10-23) stages of differentiation. Three alternative GSK-3 inhibitors were tested alongside BIO to determine effectiveness in inducing hepatic marker expression (SB216763, Kenpaullone and Indirubin-3-O) and results were compiled both for Phase I enzymes and Phase II enzymes and hepatic markers, with two negative controls (hESC-HEP not exposed to GSK-3 inhibition during differentiation, and undifferentiated hESC cells). During days 3-9 of differentiation, concentrations of GSK-3 inhibitors used were as follows: BIO 3.5 μM, SB216763 34 nM, Kenpaullone 0.23 μM and Indirubin-3-O 22 nM. […]"}, "[13]": {"tested_on": "hESC-HEP cultures (cell line SA002)", "test": "Functional CYP1A activity in hESC-HEP cultures with NaB together with BIO", "format": "cell-based, human", "settings": "NaB 1 mM together with BIO 1.4 μM at day 21-25, vs parallel cultures without NaB", "experimental": "FIG. 9. […] Analysis is performed day 24-25, n=1.\nCell line SA002 from mEF cultures was used as starting material."}},
  "data": [
    {"smiles": "O=C1Nc2cc(Br)ccc2/C1=C1/Nc2ccccc2/C1=N\\O", "note": "[BIO, (2′Z,3′E)-6-Bromoindirubin-3′-oxime]", "values": [
      {"measurement": "cell death", "setting": "MEF cultured hESC; 3.5 μM BIO from day 3, compared to 5 μM BIO", "result": "less dramatic cell death"},
      {"measurement": "cell death", "setting": "MEF cultured hESC; 5 μM BIO day 3", "result": "dramatic cell death"},
      {"measurement": "hepatic gene marker expression (FIG. 4B)", "setting": "[1]", "result": "higher"},
      {"measurement": "activity of CYP1A", "setting": "hES cells [2]", "result": "increased"},
      {"measurement": "activity of CYP2C", "setting": "hES cells [2]", "result": "increased"},
      {"measurement": "activity of CYP3A", "setting": "hES cells [2]", "result": "increased"},
      {"measurement": "expression of CYP1A1, CYP1A2, CYP3A4 and CYP7A1", "setting": "hiPS cells [3]", "result": "clear increase"},
      {"measurement": "levels of CYP2C9", "setting": "hiPS cells [3]", "result": "maintained high"},
      {"measurement": "mRNA of CD44, AFP, CK18, CK19, CYP1A1, CYP1A2, CYP3A4, CYP2C9, CYP7A1, Albumin, OATP2, A1AT, MRP2", "setting": "hiPS cells [3]", "result": "Increased"},
      {"measurement": "mRNA of CYP1A1, CYP1A2, CYP3A4, CYP2C9, CYP7A1, MRP2, CD44, AFP, CK18, CK19", "setting": "hiPS cells [3]", "result": "Increased"},
      {"measurement": "AAT", "setting": "hiPS cells [3]; hiPS+/−BIO, n=4", "result": "maintained on a high level"},
      {"measurement": "AFP levels", "setting": "hiPS cells [3]; hiPS+/−BIO, n=4", "result": "decreased"},
      {"measurement": "Albumin", "setting": "hiPS cells [3]; hiPS+/−BIO, n=4", "result": "maintained at a level high compared to known protocols"},
      {"measurement": "transporters such as MRP2, Oct-1, GSTA1, BCEP and OATP2", "setting": "hiPS cells [3]; hiPS+/−BIO, n=4, vs HepG2", "result": "maintained at levels significantly higher than HepG2"},
      {"measurement": "maturity of hiPS derived cells (Q-PCR, immunocytochemistry, Activity Assay)", "setting": "hiPS cells [3]; media supplemented with BIO vs absence of GSK-3 inhibitor", "result": "became more mature"},
      {"measurement": "Cyp1A activity over time", "setting": "[4]", "result": "increased during time"},
      {"measurement": "CYP1A activity", "setting": "hiPS cells [5]", "result": "Increased"},
      {"measurement": "CYP3A activity", "setting": "hiPS cells [5]", "result": "Increased"},
      {"measurement": "activity of CYP1A", "setting": "hiPS cells [5]", "result": "increased"},
      {"measurement": "activity of CYP3A", "setting": "hiPS cells [5]", "result": "increased"},
      {"measurement": "metabolic activity (FIG. 5A)", "setting": "hiPS cells [5]", "result": "greater metabolic activity"},
      {"measurement": "A1AT expression", "setting": "[6]; BIO supplemented at day 3", "result": "strong increase at day 28"},
      {"measurement": "ALB expression", "setting": "[6]; BIO supplemented at day 3", "result": "decreased at day 26"},
      {"measurement": "GSTA1 and UGT2B7 expression", "setting": "[6]; BIO supplemented at day 3", "result": "increased expression"},
      {"measurement": "MRP2 and BSEP expression", "setting": "[6]; BIO supplemented at day 3", "result": "increased expression"},
      {"measurement": "TAT expression levels", "setting": "[6]; with BIO vs without BIO, all days", "result": "higher expression levels"},
      {"measurement": "increase of UGT1A1 activity", "setting": "[7]; +/− BIO 1.4 μM days 14-25", "result": "much greater than for others"},
      {"measurement": "activity of most of the UGTs", "setting": "[7]; +/− BIO 1.4 μM days 14-25, three differentiation protocols", "result": "greater activity"},
      {"measurement": "metabolic activity (FIG. 4A)", "setting": "[8]", "result": "higher"},
      {"measurement": "Beta catenin in the cytoplasm and nuclei", "setting": "Beta-catenin; BIO treated hES-HEP cultures, Day 21", "result": "commonly observed"},
      {"measurement": "beta-catenin localisation", "setting": "Beta-catenin; upon BIO treatment", "result": "translocate from cell membrane to nucleus"},
      {"measurement": "culture purity (morphology)", "setting": "[9]; 3.5 μM BIO from day 3 (Example 11) vs untreated (Example 9)", "result": "more purified hESC-HEP compared to untreated cultures"},
      {"measurement": "culture homogeneity (morphology)", "setting": "[9]; 5 μM BIO from day 3, surviving cells passaged day 4", "result": "highly purified and homogenous culture of hESC-HEP"},
      {"measurement": "final purity of the cell populations", "setting": "[9]; BIO addition at a later stage (day 10+)", "result": "greater final purity"},
      {"measurement": "culture homogeneity (morphology)", "setting": "[9]; low concentration (1 μM) of BIO, day 3-9", "result": "highly heterogeneous cultures where hardly any hepatocyte-like cells were observed"},
      {"measurement": "expression of CYP1A1, CYP1A2, CYP3A4, CYP2C9 and CYP7A1", "setting": "hES cells [10]", "result": "clear increase"},
      {"measurement": "AAT", "setting": "hES cells [10]; hPS+/−BIO, n=4", "result": "increase"},
      {"measurement": "transporters such as MRP2, Oct-1, GSTA1, BCEP and OATP2", "setting": "hES cells [10]; hPS+/−BIO, n=4", "result": "maintained at levels showing a maturation"}
    ]},
    {"smiles": "O=C1Cc2c([nH]c3ccc(Br)cc23)-c2ccccc2N1", "note": "[Kenpaullone, 9-Bromo-7,12-dihydro-indolo[3,2-d][1]benzazepin-6(5H)-one]", "values": [
      {"measurement": "expression of most of the Phase I enzymes and hepatic markers", "setting": "hESC-HEP [11]", "result": "higher levels of expression than BIO"},
      {"measurement": "expression of most of the Phase I enzymes", "setting": "hESC-HEP [12]", "result": "higher levels of expression than BIO"}
    ]},
    {"smiles": "CCCC(=O)[O-].[Na+]", "note": "[NaB, Sodium Butyrate]", "values": [
      {"measurement": "CYP1A activity", "setting": "[13]", "result": "increased"}
    ]}
  ]
}
